# Legend:
# Assay in all cases: NCI-60 screen (SRB)
# Assay type in all cases: cell-based
# MDA-MB-468 = test system: MDA-MB-468
# Description: (§1) The human tumor cell lines of the cancer screening panel are grown in RPMI 1640 medium containing 5% fetal bovine serum and 2 mM L-glutamine. For a typical screening experiment, cells are inoculated into 96 well microtiter plates in 100 μL at plating densities ranging from 5,000 to 40,000 cells/well depending on the doubling time of individual cell lines. After cell inoculation, the microtiter plates are incubated at 37° C., 5% CO2, 95% air and 100% relative humidity for 24 h prior to addition of experimental drugs.
# (§2) After 24 h, two plates of each cell line are fixed in situ with TCA, to represent a measurement of the cell population for each cell line at the time of drug addition (Tz). Experimental drug is solubilized in dimethyl sulfoxide at 400-fold the desired final maximum test concentration and stored frozen prior to use. At the time of drug addition, an aliquot of frozen concentrate is thawed and diluted to twice the desired final maximum test concentration with complete medium containing 50 μg/ml gentamicin. Additional four, 10-fold or ½ log serial dilutions are made to provide a total of five drug concentrations plus control. Aliquots of 100 μl of these different drug dilutions are added to the appropriate microtiter wells already containing 100 μl of medium, resulting in the required final drug concentrations.
# (§3) Following drug addition, the plates are incubated for an additional 48 h at 37° C., 5% CO2, 95% air, and 100% relative humidity. For adherent cells, the assay is terminated by the addition of cold TCA. Cells are fixed in situ by the gentle addition of 50 μl of cold 50% (w/v) TCA (final concentration, 10% TCA) and incubated for 60 minutes at 4° C. The supernatant is discarded, and the plates are washed five times with tap water and air dried. Sulforhodamine B (SRB) solution (100 μl) at 0.4% (w/v) in 1% acetic acid is added to each well, and plates are incubated for 10 minutes at room temperature. After staining, unbound dye is removed by washing five times with 1% acetic acid and the plates are air dried. Bound stain is subsequently solubilized with 10 mM trizma base, and the absorbance is read on an automated plate reader at a wavelength of 515 nm. For suspension cells, the methodology is the same except that the assay is terminated by fixing settled cells at the bottom of the wells by gently adding 50 μl of 80% TCA (final concentration, 16% TCA). Using the seven absorbance measurements [time zero, (Tz), control growth, (C), and test growth in the presence of drug at the five concentration levels (Ti)], the percentage growth is calculated at each of the drug concentrations levels.
# (§4) Percentage growth inhibition is calculated as: [(Ti−Tz)/(C−Tz)]×100 for concentrations for which Ti>/=Tz (1) [(Ti−Tz)/Tz]×100 for concentrations for which Ti<Tz (2)
# (§5) Growth inhibition of 50% (GI50) is calculated from [(Ti−Tz)/(C−Tz)]×100=50 (3)
# (§6) which is the drug concentration resulting in a 50% reduction in the net protein increase (as measured by SRB staining) in control cells during the drug incubation.
# (§7) The drug concentration resulting in total growth inhibition (TGI) is calculated from Ti=Tz (4)
# (§8) The LC50 (concentration of drug resulting in a 50% reduction in the measured protein at the end of the drug treatment as compared to that at the beginning) indicating a net loss of cells following treatment is calculated from [(Ti−Tz)/Tz]×100=−50 (5)
# (§9) Values are calculated for each of these three parameters if the level of activity is reached; however, if the effect is not reached or is exceeded, the value for that parameter is expressed as greater or less than the maximum or minimum concentration tested.
# KM12 = KM12 (Colon)
# Description: as §1, §2, §3, §4, §5, §6, §7, §8, §9
# NCI/ADR-RES = NCI/ADR-RES (Ovarian)
# Description: as §1, §2, §3, §4, §5, §6, §7, §8, §9
# U251 = U251 (CNS)
# Description: as §1, §2, §3, §4, §5, §6, §7, §8, §9
# SN12C = SN12C (Renal)
# Description: as §1, §2, §3, §4, §5, §6, §7, §8, §9
# SNB-19 = SNB-19 (CNS)
# Description: as §1, §2, §3, §4, §5, §6, §7, §8, §9
# SW-620 = SW-620 (Colon)
# Description: as §1, §2, §3, §4, §5, §6, §7, §8, §9
# TK-10 = TK-10 (Renal)
# Description: as §1, §2, §3, §4, §5, §6, §7, §8, §9
# UACC-257 = UACC-257 (Melanoma)
# Description: as §1, §2, §3, §4, §5, §6, §7, §8, §9
# BT-549 = BT-549 (Breast)
# Description: as §1, §2, §3, §4, §5, §6, §7, §8, §9
# HT29 = HT29 (Colon)
# Description: as §1, §2, §3, §4, §5, §6, §7, §8, §9
# MDA-MB-435 = MDA-MB-435 (Melanoma)
# Description: as §1, §2, §3, §4, §5, §6, §7, §8, §9
# M14 = M14 (Melanoma)
# Description: as §1, §2, §3, §4, §5, §6, §7, §8, §9
# SK-MEL-28 = SK-MEL-28 (Melanoma)
# Description: as §1, §2, §3, §4, §5, §6, §7, §8, §9
# SR = SR (Leukemia)
# Description: as §1, §2, §3, §4, §5, §6, §7, §8, §9
# MDA-MB-231/ATCC = MDA-MB-231/ATCC (Breast)
# Description: as §1, §2, §3, §4, §5, §6, §7, §8, §9
# SNB-75 = SNB-75 (CNS)
# Description: as §1, §2, §3, §4, §5, §6, §7, §8, §9
# [1] = Homo sapiens, read-out: LC50 (the source's name)
compound,measurement,setting,value
"CC(C)(C)NC1CCN(c2cc(-c3ccc(Cl)cc3)nc3ccccc23)CC1.Cl.Cl [XII-4, 2-(4-chloro-phenyl)-4-(4-N-tert-butylamino-piperidin-1-yl)quinoline dihydrochloride]",Growth percent at 10 μM,MDA-MB-468; MDA-MB-468 (Breast),×× (cell growth −20 < % > −40)
same,Growth percent at 10 μM,KM12,+ (cell growth 60 > % < 80)
same,Growth percent at 10 μM,NCI/ADR-RES,+ (cell growth 60 > % < 80)
same,Growth percent at 10 μM,U251,++ (cell growth 40 > % < 60)
same,Growth percent at 10 μM,SN12C,++ (cell growth 40 > % < 60)
same,Growth percent at 10 μM,SNB-19,− (cell growth % > 80)
same,Growth percent at 10 μM,SW-620,++++ (cell growth 0 > % < 20)
same,Growth percent at 10 μM,TK-10,− (cell growth % > 80)
same,Growth percent at 10 μM,UACC-257,××× (cell growth −40 < % > −60)
same,Growth percent at 10 μM,BT-549,− (cell growth % > 80)
same,Growth percent at 10 μM,HT29,× (cell growth 0 < % > −20)
same,Growth percent at 10 μM,MDA-MB-435,++++ (cell growth 0 > % < 20)
same,Growth percent at 10 μM,M14,×××× (cell growth −60 < % > −80)
same,Growth percent at 10 μM,SK-MEL-28,×××× (cell growth −60 < % > −80)
same,Growth percent at 10 μM,SR,++++ (cell growth 0 > % < 20)
same,Growth percent at 10 μM,MDA-MB-231/ATCC,×× (cell growth −20 < % > −40)
same,Growth percent at 10 μM,SNB-75,++ (cell growth 40 > % < 60)
"CCN(CC)C1CCN(C(C)c2cc(-c3ccccc3)nc3ccccc23)CC1.Cl.Cl (stereo not shown) [XIX-3, 2-phenyl-4-{1-[4-(N,N-diethylamino)piperidin-1-yl]-eth-1-yl}quinoline dihydrochloride]",CC50,"MDA-MB-468; Homo sapiens, MDA-MB-468, read-out: LC50",38 µM
same,GI50,"MDA-MB-468; Homo sapiens, MDA-MB-468 (Breast)",3 µM
same,TGI,MDA-MB-468; MDA-MB-468 (Breast),10 µM
same,Growth percent at 10 μM,MDA-MB-468; MDA-MB-468 (Breast),+++ (cell growth 20 > % < 40)
same,GI50,KM12; Homo sapiens,10 µM
same,CC50,KM12; [1],50 µM
same,TGI,KM12,22 µM
same,Growth percent at 10 μM,KM12,++ (cell growth 40 > % < 60)
same,GI50,NCI/ADR-RES; Homo sapiens,12 µM
same,LC50 (concentration giving 50% net cell kill),NCI/ADR-RES; Homo sapiens,56 µM
same,TGI,NCI/ADR-RES,26 µM
same,Growth percent at 10 μM,NCI/ADR-RES,+ (cell growth 60 > % < 80)
same,GI50,"U251; Homo sapiens, U-251",6 µM
same,CC50,"U251; Homo sapiens, U-251, read-out: LC50 (the source's name)",49 µM
same,TGI,U251,20 µM
same,Growth percent at 10 μM,U251,+++ (cell growth 20 > % < 40)
same,GI50,SN12C; Homo sapiens,12 µM
same,LC50 (concentration giving 50% net cell kill),SN12C; Homo sapiens,26 µM
same,TGI,SN12C,26 µM
same,Growth percent at 10 μM,SN12C,+ (cell growth 60 > % < 80)
same,GI50,SNB-19; Homo sapiens,13 µM
same,CC50,SNB-19; [1],59 µM
same,TGI,SNB-19,28 µM
same,Growth percent at 10 μM,SNB-19,− (cell growth % > 80)
same,GI50,SW-620; Homo sapiens,4 µM
same,CC50,SW-620; [1],45 µM
same,TGI,SW-620,17 µM
same,Growth percent at 10 μM,SW-620,++ (cell growth 40 > % < 60)
same,GI50,TK-10; Homo sapiens,13 µM
same,LC50 (concentration causing 50% net cell kill),TK-10; Homo sapiens,26 µM
same,TGI,TK-10,26 µM
same,Growth percent at 10 μM,TK-10,− (cell growth % > 80)
same,GI50,UACC-257; Homo sapiens,2 µM
same,CC50,UACC-257; [1],8 µM
same,TGI,UACC-257,4 µM
same,Growth percent at 10 μM,UACC-257,××× (cell growth −40 > % < −60)
same,TGI,BT-549,27 µM
same,Growth percent at 10 μM,BT-549,+ (cell growth 60 > % < 80)
same,GI50,BT-549; Homo sapiens,13 µM
same,CC50,BT-549; [1],56 µM
same,TGI,HT29,7 µM
same,Growth percent at 10 μM,HT29,++++ (cell growth % < 20)
same,GI50,"HT29; Homo sapiens, HT-29",2 µM
same,CC50,"HT29; Homo sapiens, HT-29, read-out: LC50 (the source's name)",32 µM
same,GI50,MDA-MB-435; Homo sapiens,2 µM
same,CC50,MDA-MB-435; [1],14 µM
same,TGI,MDA-MB-435,5 µM
same,Growth percent at 10 μM,MDA-MB-435,++++ (cell growth % < 20)
same,GI50,M14; Homo sapiens,2 µM
same,CC50,M14; [1],8 µM
same,TGI,M14,4 µM
same,Growth percent at 10 μM,M14,××× (cell growth −40 > % < −60)
same,GI50,SK-MEL-28; Homo sapiens,2 µM
same,CC50,SK-MEL-28; [1],6 µM
same,TGI,SK-MEL-28,3 µM
same,Growth percent at 10 μM,SK-MEL-28,××× (cell growth −40 > % < −60)
same,GI50,SR; Homo sapiens,3 µM
same,CC50,SR; [1],49 µM
same,TGI,SR,7 µM
same,Growth percent at 10 μM,SR,× (cell growth 0 > % > −20)
same,GI50,MDA-MB-231/ATCC; Homo sapiens,3 µM
same,CC50,MDA-MB-231/ATCC; [1],47 µM
same,TGI,MDA-MB-231/ATCC,14 µM
same,Growth percent at 10 μM,MDA-MB-231/ATCC,++ (cell growth 40 > % < 60)
same,GI50,SNB-75; Homo sapiens,12 µM
same,CC50,SNB-75; [1],55 µM
same,TGI,SNB-75,26 µM
same,Growth percent at 10 μM,SNB-75,+++ (cell growth 20 > % < 40)
